For assay [1], the system named is HFD-induced obese rats. The assay is described as follows: High-fat diet-induced obesity rat model, subcutaneous infusion: body weight gain, food intake, body composition. In kind it is in vivo. Particulars: for food intake / body weight gain: 14 days; for body weight gain: not observed in pair-fed group. On the procedure: Another group of the above male Wistar rats were rendered obese as described above and were subcutaneously infused with saline or OT (NeoMPS®, Strasbourg, France) (50 nmol/day/rat) during 14 days.
The beneficial metabolic effects of OT administration were assayed in the same high-fat diet induced obesity model in rats as in Example 1 and in PPAR-alpha knockout mice (Lee et al., 1995, Mol. Cell. Biol., 15(6):3012-22). HFD-induced obese animals, saline or OT groups (see conditions under Example 1) were subcutaneously infused via minipumps (Alzet®, as above). OT was delivered at a dose of 50 nmol/day/rat during 14 days.
An EchoMRI-700 quantitative nuclear magnetic resonance (QMR) analyzer (Echo Medical Systems, Houston, Tex.) was used to measure total fat mass and lean body mass in rats at the beginning and the end of the treatment.
The beneficial metabolic effects of administration of an oxytocin derivative according to the invention (Carbetocin) were assessed in the same rat model of high-fat diet induced obesity as in Example 1. HFD-induced obese animals were subcutaneously infused via minipumps (Alzet®, as above) with saline or carbetocin (Bachem) (5 nmol/day/rat or 50 nmol/day/rat) during 14 days.
Body composition parameters were measured by quantitative nuclear magnetic resonance as described in Example 3 at the beginning and 10 days of treatment.

Assay [2] has as its system differentiated 3T3-L1 adipocytes. Briefly: Lipid metabolism in differentiated 3T3-L1 adipocytes in vitro. The class given is cell-based, Murine. Particulars: incubated in the presence of OEA. On the procedure: The in vitro effect of OT on lipid metabolism in differentiated 3T3-L1 adipocytes was assayed as follows. Murine 3T3-L1 fibroblasts were differentiated towards a […] phenotype as previously described (Olson et al., 1997, Mol. Cell. Biol., 2425-2435). In brief, cells were cultured in Dulbecco's modified eagle medium (DMEM) with 4.5 g/l glucose supplemented with 10% heat-inactivated depleted calf serum (DCS) at 37° C./8% CO2. Cells were induced to differentiate, two days post confluence, by sequential incubations with: DMEM 4.5 g/l glucose, 10% fetal bovine serum (FCS) containing 1 μg/ml insulin, 0.25 μM dexamethasone and 0.5 mM isobutylmethylxanthane (IBMX) for 4 days; DMEM 4.5 g/l glucose, 10% FCS containing insulin alone for an additional 4 days; DMEM 4.5 g/l glucose, 10% FCS for 3-4 days. Differentiation was considered achieved when more than 90% of cells display an accumulation of large lipid droplets in their cytoplasm.

*1 amine or outer side, *2 acyl side, *3 side chain or, on linkers, in order; H or OH if unused. Where a SMILES comes first, the peptide text is derived from it. Bridges are numbered along the chain shown (N, C = ends). X1 = O=C(CCC[*:2])[*:1]

On to `CC[C@H](C)[C@@H]1NC(=O)[C@H](Cc2ccc(OC)cc2)NC(=O)CCCSC[C@@H](C(=O)N2CCC[C@H]2C(=O)N[C@@H](CC(C)C)C(=O)NCC(N)=O)NC(=O)[C@H](CC(N)=O)NC(=O)[C@H](CCC(N)=O)NC1=O` [carbetocin, Butyryl-Tyr(Me)-Ile-Gln-Asn-Cys-Pro-Leu-Gly-NH2] (Y(Me)IQNCPLG-NH2; linker N-5 via X1), for which, in assay [1] (s.c. 5 nmol/day), the food intake entry was “decreased” and the body weight gain result is reported as “decreased”. For the same compound, in assay [1] (s.c. 50 nmol/day), the food intake result is reported as “decreased” and the body weight gain entry is “decreased”. Moreover, the “fat mass (QMR)” value in assay [1] (s.c. carbetocin (5 nmol/d and 50 nmol/d groups), 10 days, independent of food intake) was “significant decrease”.

As to `CCCCCCCC/C=C\CCCCCCCC(=O)NCCO` [OEA, Oleoylethanolamide], in assay [2], the “mRNA expression of PPAR-alpha” value is given as “induce” and the “mRNA expression of most of the PPAR-alpha related genes (Acadm, Acox1, Ehhadh, Ucp3)” value is reported as “induce”.

The values above are taken from patent publication US9101569B2, “Methods for the treatment of insulin resistance” (UNIVERSITE DE GENEVE, priority 2010, dated 2015).
